According to PMC10008000 (Iranian Journal of Pharmaceutical Research : IJPR, 2023):

Tests used:
[1] = MTT assay, normal fibroblast cell line HDF; type: cell-based; settings: human, HDF normal fibroblast cells
[2] = system: MCF-7 breast cancer cells; assay: MTT antitumor assay, MCF-7; type: cell-based; settings: Homo sapiens, MCF7, 48 h, read-out: IC50 (μM) ± SD MCF-7
HT-29 colon cancer cells = assay: MTT antitumor assay, HT-29; type: cell-based; settings: Homo sapiens, HT-29, 48 h, read-out: IC50 (μM) ± SD HT-29
A-549 lung cancer cells = assay: MTT antitumor assay, A-549; type: cell-based; settings: Homo sapiens, A549, 48 h, read-out: IC50 (μM) ± SD A-549
EGFR tyrosine kinase = EGFR tyrosine kinase (Homo sapiens, UniProt P00533); assay: EGFR Kinase Assay Kit / Kinase-Glo luminescence kinase assay; type: biochemical
Sequence of EGFR tyrosine kinase (P00533 25-1210): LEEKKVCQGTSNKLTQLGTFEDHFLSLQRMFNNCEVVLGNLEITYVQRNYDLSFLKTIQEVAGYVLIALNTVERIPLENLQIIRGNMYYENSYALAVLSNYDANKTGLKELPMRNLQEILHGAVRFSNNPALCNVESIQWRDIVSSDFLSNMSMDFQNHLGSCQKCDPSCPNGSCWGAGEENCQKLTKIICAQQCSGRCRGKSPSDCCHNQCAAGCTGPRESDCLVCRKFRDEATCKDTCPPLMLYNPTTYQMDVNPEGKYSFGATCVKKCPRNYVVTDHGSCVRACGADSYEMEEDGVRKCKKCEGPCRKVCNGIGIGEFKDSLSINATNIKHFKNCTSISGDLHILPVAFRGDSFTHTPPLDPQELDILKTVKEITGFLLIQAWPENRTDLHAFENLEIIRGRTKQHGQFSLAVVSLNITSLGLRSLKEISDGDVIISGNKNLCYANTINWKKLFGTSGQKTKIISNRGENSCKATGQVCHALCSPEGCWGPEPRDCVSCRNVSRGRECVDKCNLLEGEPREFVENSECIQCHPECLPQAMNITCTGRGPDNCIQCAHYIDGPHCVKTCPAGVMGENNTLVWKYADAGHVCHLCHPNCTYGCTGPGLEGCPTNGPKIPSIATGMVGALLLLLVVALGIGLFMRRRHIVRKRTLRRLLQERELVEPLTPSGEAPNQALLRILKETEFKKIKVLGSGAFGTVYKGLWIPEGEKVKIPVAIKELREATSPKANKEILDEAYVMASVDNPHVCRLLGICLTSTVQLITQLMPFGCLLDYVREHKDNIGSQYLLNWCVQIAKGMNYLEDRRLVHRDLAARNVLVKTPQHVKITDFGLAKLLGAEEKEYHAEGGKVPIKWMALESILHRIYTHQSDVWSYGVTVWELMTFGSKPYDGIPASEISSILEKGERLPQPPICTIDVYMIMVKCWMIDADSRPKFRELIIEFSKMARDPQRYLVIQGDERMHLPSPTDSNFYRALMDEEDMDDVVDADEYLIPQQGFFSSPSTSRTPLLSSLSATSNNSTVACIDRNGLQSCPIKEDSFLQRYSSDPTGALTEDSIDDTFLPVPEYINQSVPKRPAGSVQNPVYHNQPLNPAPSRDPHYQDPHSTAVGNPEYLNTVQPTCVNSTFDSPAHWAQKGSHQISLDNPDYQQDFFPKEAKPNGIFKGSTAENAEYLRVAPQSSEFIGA

Row | SMILES | IC50 at 48 h [1] [µM] | IC50 [2] [µM] | IC50 (HT-29 colon cancer cells) [µM] | IC50 (A-549 lung cancer cells) [µM] | IC50 (EGFR tyrosine kinase) [µM]
1 | Nc1nc(Nc2ccccc2)c2cc(NCc3ccccc3)ccc2n1 [10a, N^6-benzyl-N^4-phenylquinazoline-2,4,6-triamine] | ≥ 100 | ≥ 100 | ≥ 100 | ≥ 100 | –
2 | Cc1ccc(CNc2ccc3nc(N)nc(Nc4ccccc4)c3c2)cc1 [10d, N^6-(4-methylbenzyl)-N^4-phenylquinazoline-2,4,6-triamine] | ≥ 100 | ≥ 100 | ≥ 100 | 0.126 ± 0.019 | 45.5
3 | COc1ccc(CNc2ccc3nc(N)nc(Nc4ccccc4)c3c2)cc1 [10e, N^6-(4-methoxybenzyl)-N^4-phenylquinazoline-2,4,6-triamine] | ≥ 100 | 63.5 ± 1.39 | 13.5 ± 1.89 | 15 ± 0.9 | 3.53
4 | Cc1ccc(Nc2nc(N)nc3ccc(NCc4ccccc4)cc23)cc1 [10g, N^6-benzyl-N^4-p-methylphenyl quinazoline-2,4,6-triamine] | ≥ 100 | ≥ 100 | ≥ 100 | ≥ 100 | –
5 | COc1ccc(Nc2nc(N)nc3ccc(NCc4ccccc4)cc23)cc1 [10h, N^6-benzyl-N^4-(4-methoxyphenyl) quinazoline-2,4,6-triamine] | ≥ 100 | ≥ 100 | ≥ 100 | ≥ 100 | –
6 | Nc1nc(Nc2ccc(F)cc2)c2cc(NCc3ccccc3)ccc2n1 [10l, N^6-benzyl-N^4-(4-fluorophenyl) quinazoline-2,4,6-triamine] | ≥ 100 | ≥ 100 | ≥ 100 | ≥ 100 | –
7 | Cc1ccc(C(=O)Nc2ccc3nc(N)nc(Nc4ccccc4)c3c2)cc1 [10n, N-(2-amino-4-(phenylamino)quinazolin-6-yl)-4-methylbenzamide] | ≥ 100 | ≥ 100 | ≥ 100 | ≥ 100 | –
8 | Nc1nc(Nc2ccccc2)c2cc(NC(=O)c3ccc(F)cc3)ccc2n1 [10p, N-(2-amino-4-(phenylamino)quinazolin-6-yl)-4-fluorobenzamide] | ≥ 100 | ≥ 100 | ≥ 100 | ≥ 100 | –
9 | COc1cccc2c1C(=O)c1c(O)c3c(c(O)c1C2=O)C[C@@](O)(C(=O)CO)C[C@@H]3O[C@H]1C[C@H](N)[C@H](O)[C@H](C)O1 [Doxorubicin, reference compound] | ≥ 100 | 4.07 ± 0.38 | 56.3 ± 0.9 | 4.3 ± 0.3 | –
10 | C#Cc1cccc(Nc2ncnc3cc(OCCOC)c(OCCOC)cc23)c1 [Erlotinib, reference compound] | ≥ 100 | 18.2 ± 2.6 | 28.1 ± 0.69 | 73.3 ± 1.5 | –
